Counter-ions that a name gives are not always drawn. Like-named read-outs stand apart in the source and are kept apart here.
Key:
22Rv1 cells = assay: Cell-based assay: anti-proliferative activity, Cell Counting Kit-8, 72 hours (22Rv1)
A549 cells = assay: Cell-based assay: anti-proliferative activity, Cell Counting Kit-8, 72 hours (A549); conditions: 72 hours
Outline: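 Cell Counting Kit-8 read-out of A549 growth after 72 hours of inhibitor exposure, cells plated in 96-well format. Values reported as IC50.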

DU4475 cells = assay: Cell-based assay: anti-proliferative activity, Cell Counting Kit-8, 72 hours (DU4475)
MELK = MELK (Homo sapiens, UniProt Q14680); assay: Kinase assay: MELK activity, phosphorylation of FITC-labeled histone H3 peptide measured by IMAP fluorescence polarization; assay type: biochemical
Outline: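 Compounds, serially diluted from 12.5 mM DMSO stocks to 1% final DMSO, were tested with FITC-labeled histone H3 peptide as substrate. The reaction was stopped with progressive binding solution. Fluorescence polarization was read after 0.5 hour at room temperature.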

HT-1197 cells = assay: Cell-based assay: anti-proliferative activity, Cell Counting Kit-8, 72 hours (HT-1197, negative control without MELK expression); conditions: HT1197 cells (negative control, no MELK expression), 72 hours
Outline: (§1)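 Anti-MELK western blot on crude lysates → MELK status per line. Cells plated 96-well, compound exposure, CCK-8 readout at 72 h; IC50 calculated.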

T47D cells = assay: Cell-based assay: anti-proliferative activity, Cell Counting Kit-8, 72 hours (T47D)
Outline: as §1

[1] = read-out: IC50 (μM) (kinase assay)
[2] = MELK kinase assay, IMAP fluorescence polarization, 50 micro-M ATP, read-out: IC50 (μM) (kinase assay)

Chain of MELK (Q14680 whole entry, looked up): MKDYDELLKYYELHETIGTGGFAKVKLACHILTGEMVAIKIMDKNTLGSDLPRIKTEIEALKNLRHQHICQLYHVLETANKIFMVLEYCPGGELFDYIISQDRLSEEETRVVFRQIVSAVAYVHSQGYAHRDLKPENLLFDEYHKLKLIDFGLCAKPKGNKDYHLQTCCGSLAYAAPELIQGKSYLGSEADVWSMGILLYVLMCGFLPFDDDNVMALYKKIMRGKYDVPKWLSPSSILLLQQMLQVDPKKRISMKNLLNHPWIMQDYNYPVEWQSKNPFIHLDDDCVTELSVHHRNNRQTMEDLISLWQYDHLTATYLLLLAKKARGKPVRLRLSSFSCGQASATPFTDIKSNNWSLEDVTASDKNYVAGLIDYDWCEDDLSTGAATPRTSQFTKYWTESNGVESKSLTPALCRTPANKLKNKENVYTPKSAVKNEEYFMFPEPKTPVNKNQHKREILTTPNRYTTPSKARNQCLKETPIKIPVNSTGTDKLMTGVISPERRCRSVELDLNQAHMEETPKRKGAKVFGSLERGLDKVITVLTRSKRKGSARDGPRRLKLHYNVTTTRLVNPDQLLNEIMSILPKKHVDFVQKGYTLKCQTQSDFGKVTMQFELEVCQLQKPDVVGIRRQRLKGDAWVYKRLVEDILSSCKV

SMILES	IC50 (22Rv1 cells; Homo sapiens, 22Rv1, 72 h)	IC50 (A549 cells; Homo sapiens, A549, 72 h)	IC50 (DU4475 cells; Homo sapiens, DU-4475, 72 h)	IC50 (MELK; [1])	IC50 (HT-1197 cells; Homo sapiens, HT1197, 72 h)	IC50 (T47D cells; Homo sapiens, T47D, 72 h)	also measured
CC(=O)c1cnc2ccc(-c3cc(F)c(O)c(Cl)c3)cc2c1N[C@H]1CC[C@H](CN2CCN(C)CC2)CC1 [Example 781, 1-(6-(3-chloro-5-fluoro-4-hydroxyphenyl)-4-(1R,4R)-4-((4-methylpiperazin-1-yl)methyl)cyclohexylamino)quinolin-3-yl)ethanone hydrochloride]	0.34 µM	0.2 µM	0.19 µM	0.013 µM	3.3 µM	0.1 µM	–
CNC1CCN(c2ccc(Nc3c(C(C)=O)cnc4ccc(-c5cc(Cl)c(O)c(Cl)c5)cc34)cn2)C1 (stereo not shown) [Example 788, 1-(6-(3,5-dichloro-4-hydroxyphenyl)-4-((6-(3-(methylamino)pyrrolidin-1-yl)pyridin-3-yl)amino)quinolin-3-yl)ethanone trihydrochloride]	0.1 µM	0.16 µM	0.07 µM	0.0017 µM	8.6 µM	0.071 µM	–
CC(=O)c1cnc2ccc(-c3cc(F)c(O)c(Cl)c3)cc2c1N[C@H]1CCC[C@H](CCN(C)C)C1 [Example 862, 1-(6-(3-chloro-5-fluoro-4-hydroxyphenyl)-4-(((1S,3R)-3-(2-(dimethylamino)ethyl)cyclohexyl)amino)quinolin-3-yl)ethanone hydrochloride]	0.2 µM	0.29 µM	0.2 µM	–	1.1 µM	0.26 µM	IC50 (MELK; [2]): 0.0067 µM
CC(=O)c1cnc2ccc(-c3cc(F)c(O)c(Cl)c3)cc2c1N[C@H]1CC[C@H](CN2CCNCC2)CC1 [Example 783, 1-(6-(3-chloro-5-fluoro-4-hydroxyphenyl)-4-((trans-4-(piperazin-1-ylmethyl)cyclohexyl)amino)quinolin-3-yl)ethanone dihydrochloride]	0.087 µM	0.2 µM	0.057 µM	0.0088 µM	4.2 µM	0.027 µM	–
CC(=O)c1cnc2ccc(-c3cc(F)c(O)c(Cl)c3)cc2c1Nc1ccc(N2CCC(N)C2)nc1 (stereo not shown) [Example 773, 1-(4-(6-(3-aminopyrrolidin-1-yl)pyridin-3-ylamino)-6-(3-chloro-5-fluoro-4-hydroxyphenyl)quinolin-3-yl)ethanone]	0.0094 µM	0.028 µM	0.017 µM	0.006 µM	0.7 µM	0.0042 µM	–
CC(=O)c1cnc2ccc(-c3cc(Cl)c(O)c(Cl)c3)cc2c1N[C@H]1CC[C@H](CN2CCCC(N)C2)CC1 (stereo partly shown) [Example 810]	0.056 µM	0.12 µM	0.044 µM	0.0018 µM	2.3 µM	0.034 µM	–
CC(=O)c1cnc2ccc(-c3cc(Cl)c(O)c(Cl)c3)cc2c1Nc1ccc(N2CCC(N(C)C)C2)nc1 (stereo not shown) [Example 855, 1-(6-(3,5-dichloro-4-hydroxyphenyl)-4-((6-(3-(dimethylamino)pyrrolidin-1-yl)pyridin-3-yl)amino)quinolin-3-yl)ethanone hydrochloride]	–	–	–	–	–	–	IC50 (22Rv1 cells; hydrochloride): 0.64 µM; IC50 (A549 cells; hydrochloride): 0.38 µM; IC50 (DU4475 cells; hydrochloride): 0.23 µM; IC50 (MELK; MELK kinase assay, IMAP fluorescence polarization, 50 micro-M ATP, hydrochloride, read-out: IC50 (μM) (kinase assay)): 0.0021 µM; IC50 (HT-1197 cells; hydrochloride): 73 µM; IC50 (T47D cells; 72 hours, hydrochloride): 0.26 µM
CC(=O)c1cnc2ccc(-c3cc(Cl)c(O)c(Cl)c3)cc2c1Nc1ccc(N2CCC(N(C)C)C2)nc1 (stereo not shown) [Example 854, 1-(6-(3,5-dichloro-4-hydroxyphenyl)-4-((6-(3-(dimethylamino)pyrrolidin-1-yl)pyridin-3-yl)amino)quinolin-3-yl)ethanone]	0.51 µM	0.39 µM	0.28 µM	–	–	0.25 µM	IC50 (MELK; [2]): 0.0032 µM; IC50 (HT-1197 cells): 10 µM
CC(=O)c1c(C)nc2ccc(-c3cc(Cl)c(O)c(Cl)c3)cc2c1Nc1ccc(N2CCN(C)CC2)nc1 [Example 838, 1-(6-(3,5-dichloro-4-hydroxyphenyl)-2-methyl-4-(6-(4-methylpiperazin-1-yl)pyridin-3-ylamino)quinolin-3-yl)ethanone hydrochloride]	7.2 µM	11 µM	14 µM	–	25 µM	17 µM	IC50 (MELK; [2]): 0.097 µM
CNC1CCN(c2ccc(Nc3c(C(C)=O)cnc4ccc(-c5cc(F)c(O)c(Cl)c5)cc34)cn2)C1 (stereo not shown) [Example 785, 1-(6-(3-chloro-5-fluoro-4-hydroxyphenyl)-4-((6-(3-(methylamino)pyrrolidin-1-yl)pyridin-3-yl)amino)quinolin-3-yl)ethanone trihydrochloride]	0.076 µM	0.094 µM	0.074 µM	0.0056 µM	1.3 µM	0.035 µM	–
CCC(=O)c1cnc2ccc(-c3cc(Cl)c(O)c(Cl)c3)cc2c1N[C@H]1CC[C@H](CN2CCCC2)CC1 [Example 843]	0.19 µM	0.15 µM	0.057 µM	–	4.2 µM	0.15 µM	IC50 (MELK; [2]): 0.0016 µM
CNC1CCCN(c2ccc(Nc3c(C(C)=O)cnc4ccc(-c5cc(Cl)c(O)c(Cl)c5)cc34)cn2)C1 (stereo not shown) [Example 806, 1-(6-(3,5-dichloro-4-hydroxyphenyl)-4-((6-(3-(methylamino)piperidin-1-yl)pyridin-3-yl)amino)quinolin-3-yl)ethanone trihydrochloride]	0.039 µM	0.054 µM	0.032 µM	–	0.33 µM	0.027 µM	IC50 (MELK): 0.0012 µM
CN(C)CCNc1ccc(Nc2c(C(=O)C3CC3)cnc3ccc(-c4cc(F)c(O)c(Cl)c4)cc23)cn1 [Example 776, (6-(3-chloro-5-fluoro-4-hydroxyphenyl)-4-(6-(2-(dimethylamino)ethylamino)pyridin-3-ylamino)quinolin-3-yl)(cyclopropyl)methanone]	0.15 µM	0.08 µM	0.038 µM	–	1.2 µM	0.073 µM	–
CN(C)CCNc1ccc(Nc2c(C(=O)C3CC3)cnc3ccc(-c4cc(F)c(O)c(Cl)c4)cc23)cn1 [Example 777, (6-(3-chloro-5-fluoro-4-hydroxyphenyl)-4-(6-(2-(dimethylamino)ethylamino)pyridin-3-ylamino)quinolin-3-yl)(cyclopropyl)methanone trihydrochloride]	–	–	–	–	–	–	IC50 (22Rv1 cells; trihydrochloride): 0.17 µM; IC50 (A549 cells; trihydrochloride): 0.12 µM; IC50 (DU4475 cells; trihydrochloride): 0.047 µM; IC50 (HT-1197 cells; trihydrochloride): 1.6 µM; IC50 (T47D cells; 72 hours, trihydrochloride): 0.12 µM
CC(=O)c1cnc2ccc(-c3cc(Cl)c(O)c(Cl)c3)cc2c1N[C@H]1CCC[C@@H](CN2CCN(C)CC2)C1 [Example 835, 1-(6-(3,5-dichloro-4-hydroxyphenyl)-4-((1S,3R)-3-((4-methylpiperazin-1-yl)methyl)cyclohexylamino)quinolin-3-yl)ethanone hydrochloride]	0.81 µM	0.79 µM	0.6 µM	–	2.7 µM	0.58 µM	–
CC(=O)c1cnc2ccc(-c3cc(Cl)c(O)c(Cl)c3)cc2c1N[C@H]1CC[C@H](CN2CCN(C)CC2)CC1 [Example 782, 1-(6-(3,5-dichloro-4-hydroxyphenyl)-4-(1R,4R)-4-((4-methylpiperazin-1-yl)methyl)cyclohexylamino)quinolin-3-yl)ethanone hydrochloride]	0.41 µM	0.23 µM	0.16 µM	–	5.9 µM	0.15 µM	–
O=C(c1cnc2ccc(-c3cc(Cl)c(O)c(Cl)c3)cc2c1Nc1cccc(CCN2CCCC2)c1)C1CC1 [Example 798, cyclopropyl(6-(3,5-dichloro-4-hydroxyphenyl)-4-(3-(2-(pyrrolidin-1-yl)ethyl)phenylamino)quinolin-3-yl)methanone hydrochloride]	–	–	–	–	–	–	IC50 (22Rv1 cells; hydrochloride): 0.092 µM; IC50 (A549 cells; hydrochloride): 0.019 µM; IC50 (DU4475 cells; hydrochloride): 0.02 µM; IC50 (MELK; hydrochloride, read-out: IC50 (μM) (kinase assay)): 0.0029 µM; IC50 (T47D cells; 72 hours, hydrochloride): 0.16 µM
